For orientation: EC50 means the concentration giving half of the maximal effect. Low values mean an effect from little substance, high ones a need for much substance.

Chain of Human GPR35 (Q9HC97 whole entry S294R): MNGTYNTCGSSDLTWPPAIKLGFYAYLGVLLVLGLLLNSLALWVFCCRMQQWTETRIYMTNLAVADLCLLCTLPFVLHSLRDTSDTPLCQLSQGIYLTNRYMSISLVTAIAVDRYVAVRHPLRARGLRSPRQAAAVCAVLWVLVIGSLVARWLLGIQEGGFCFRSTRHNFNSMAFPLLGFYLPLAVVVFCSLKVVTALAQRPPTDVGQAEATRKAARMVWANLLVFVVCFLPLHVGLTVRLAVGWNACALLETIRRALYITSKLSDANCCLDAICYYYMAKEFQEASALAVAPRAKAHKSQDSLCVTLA

The first test has as its target Human GPR35 (Homo sapiens, UniProt Q9HC97, S294R). Briefly: Alternative Beta-Arrestin Assay (JumpIn 294R Tango U2OS cells, LiveBLAzer-FRET B/G). The format is cell-based. Particulars: Human GPR35 expressing JumpIn 294R Tango U2OS cells, 5 hours treatment. How it is done:
Human GPR35 expressing JumpIn (Thermo Fisher) 294R Tango U2OS cells were plated in 384-well format in clear bottom plates at a cell density of 10,000 cells/well and allowed to grow overnight. The next day, cells were treated with serially diluted test compounds for 5 hours. LiveBLAzer-FRET B/G (CCF4-AM) detection reagents were then added and cells were allowed to incubate for 2 hours before reading plates on a BioTek Cytation 5 plate reader. Zaprinast was used as a positive control for dose-response curves. In order to determine EC50 values, data w ere fit to a four-parameter dose-response curves.
In the case of `CCOc1cc(-c2nc(C(=O)O)cs2)ccc1-c1nc2[nH]nnc2c(=O)[nH]1` [Compound 187, 2-(3-ethoxy-4-(7-oxo-6,7-dihydro-3H-[1,2,3]triazolo[4,5-d]pyrimidin-5-yl)phenyl)thiazole-4-carboxylic acid], the half-maximal effective concentration (EC50) was ≤ 10 µM. Take `CCOc1cc(-c2cccc([C@H]3C[C@H]3C(=O)O)c2)ccc1-c1nc2[nH]nnc2c(=O)[nH]1` (single isomer, unassigned) [Compound 307, Cis-2-(3′-ethoxy-4′-(7-oxo-6,7-dihydro-3H-[1,2,3]triazolo[4,5-d]pyrimidin-5-yl)-[1,1′-biphenyl]-3-yl)cyclopropane-1-carboxylic acid]: the EC50 is ≤ 10 µM. `CCNc1cc(-c2nc3[nH]nnc3c(=O)[nH]2)ccc1-c1ccc(C(=O)O)cc1` [Compound 292, 2′-(ethylamino)-4′-(7-oxo-6,7-dihydro-3H-[1,2,3]triazolo[4,5-d]pyrimidin-5-yl)-[1,1′-biphenyl]-4-carboxylic acid]: the EC50 is ≤ 10 µM. Still for that read-out and setting: as for `CCOc1cc(-c2cc(O)cc(O[C@H](C)C(=O)O)c2)ccc1-c1nc2[nH]nnc2c(=O)[nH]1` (single isomer, unassigned) [Compound 255], the figure is ≤ 10 µM; as for `CCOc1cc(-c2cc(F)c(O)c(F)c2)ccc1-c1nc2[nH]nnc2c(=O)[nH]1` [Compound 203, 5-(3-Ethoxy-3′,5′-difluoro-4′-hydroxy-[1,1′-biphenyl]-4-yl)-3,6-dihydro-7H-[1,2,3]triazolo[4,5-d]pyrimidin-7-one], ≤ 10 µM.

Regarding `CCOc1cc(-c2ccc(OC(C)C)c(CC(C)C(=O)O)c2)ccc1-c1nc2[nH]nnc2c(=O)[nH]1` (stereo not shown) [Compound 302, 3-(3′-ethoxy-4-isopropoxy-4′-(7-oxo-6,7-dihydro-3H-[1,2,3]triazolo[4,5-d]pyrimidin-5-yl)-[1,1′-biphenyl]-3-yl)-2-methylpropanoic acid], the EC50 was ≤ 10 µM. On to `CCOc1cc(-c2cccc(/C=C(/C)C(=O)O)c2)ccc1-c1nc2[nH]nnc2c(=O)[nH]1` (single isomer, unassigned) [Compound 236, (Z)-3-(3′-ethoxy-4′-(7-oxo-6,7-dihydro-3H-[1,2,3]triazolo[4,5-d]pyrimidin-5-yl)-[1,1′-biphenyl]-3-yl)-2-methylacrylic acid], for which the EC50 is ≤ 10 µM. For the compound `CCOc1cc(-c2ccc(F)c(O[C@H](C)C(=O)O)c2)ccc1-c1nc2[nH]nnc2c(=O)[nH]1` [Compound 264, (R)-2-((3′-ethoxy-4-fluoro-4′-(7-oxo-6,7-dihydro-3H-[1,2,3]triazolo[4,5-d]pyrimidin-5-yl)-[1,1′-biphenyl]-3-yl)oxy)propanoic acid], the EC50 is ≤ 10 µM. The compound `O=C(O)CNc1cccc(-c2ccc(-c3nc4[nH]nnc4c(=O)[nH]3)c(OCCN3CCCC3)c2)c1` [Compound 230, (4′-(7-Oxo-6,7-dihydro-3H-[1,2,3]triazolo[4,5-d]pyrimidin-5-yl)-3′-(2-(pyrrolidin-1-yl)ethoxy)-[1,1′-biphenyl]-3-yl)glycine] registered an EC50 of 10 to 50 µM. Same read-out and setting: as for `CCOc1cc(-c2cccc([C@@H]3C[C@H]3C(=O)O)c2)ccc1-c1nc2[nH]nnc2c(=O)[nH]1` (single isomer, unassigned) [Compound 279, trans-2-(3′-ethoxy-4′-(7-oxo-6,7-dihydro-3H-[1,2,3]triazolo[4,5-d]pyrimidin-5-yl)-[1,1′-biphenyl]-3-yl)cyclopropane-1-carboxylic acid], the figure is ≤ 10 µM; as for `O=c1[nH]c(-c2ccc(-c3nnn[nH]3)cc2O)nc2[nH]nnc12` [Compound 147, 5-(2-hydroxy-4-(1H-tetrazol-5-yl)phenyl)-3,6-dihydro-7H-[1,2,3]triazolo[4,5-d]pyrimidin-7-one], ≤ 10 µM; as for `CCOc1cc(-c2cc(C)cc(O[C@H](C)C(=O)O)c2)ccc1-c1nc2[nH]nnc2c(=O)[nH]1` [Compound 266, (R)-2-((3′-ethoxy-5-methyl-4′-(7-oxo-6,7-dihydro-3H-[1,2,3]triazolo[4,5-d]pyrimidin-5-yl)-[1,1′-biphenyl]-3-yl)oxy)propanoic acid], ≤ 10 µM. Consider `CCOc1cc(-c2cc(O)cc(O[C@H](CC)C(=O)O)c2)ccc1-c1nc2[nH]nnc2c(=O)[nH]1` (single isomer, unassigned) [Compound 258], for which the EC50 was ≤ 10 µM.

Take `CCOc1cc(-c2cccc(OC(CC)C(=O)O)c2)ccc1-c1nc2[nH]nnc2c(=O)[nH]1` (stereo not shown) [Compound 247, 2-((3′-ethoxy-4′-(7-oxo-6,7-dihydro-3H-[1,2,3]triazolo[4,5-d]pyrimidin-5-yl)-[1,1′-biphenyl]-3-yl)oxy)butanoic acid]: the EC50 was ≤ 10 µM. Same read-out and setting: as for `CCOc1cc(-c2ccc(C(=O)O)c(C)c2)ccc1-c1nc2[nH]nnc2c(=O)[nH]1` [Compound 207, 3′-Ethoxy-3-methyl-4′-(7-oxo-6,7-dihydro-3H-[1,2,3]triazolo[4,5-d]pyrimidin-5-yl)-[1,1′-biphenyl]-4-carboxylic acid], the figure is ≤ 10 µM; as for `CCOc1cc(-c2cc(O)cc(C(=O)O)c2)ccc1-c1nc2[nH]nnc2c(=O)[nH]1` [Compound 198, 3′-Ethoxy-5-hydroxy-4′-(7-oxo-6,7-dihydro-3H-[1,2,3]triazolo[4,5-d]pyrimidin-5-yl)-[1,1′-biphenyl]-3-carboxylic acid], ≤ 10 µM; as for `CCOC(=O)C(C)c1cccc(-c2ccc(-c3nc4[nH]nnc4c(=O)[nH]3)c(OCC)c2)c1` (stereo not shown) [Compound 296, ethyl 2-(3′-ethoxy-4′-(7-oxo-6,7-dihydro-3H-[1,2,3]triazolo[4,5-d]pyrimidin-5-yl)-[1,1′-biphenyl]-3-yl)propanoate], ≤ 10 µM.

Take `O=C(O)c1ccc(-c2ccc(-c3nc4[nH]nnc4c(=O)[nH]3)c(OC3CCCC3)c2)cn1` [Compound 233, 5-(3-(Cyclopentyloxy)-4-(7-oxo-6,7-dihydro-3H-[1,2,3]triazolo[4,5-d]pyrimidin-5-yl)phenyl)picolinic acid]: the EC50 is ≤ 10 µM. The same measure, in the same setting: as for `CCOc1cc(-c2cc(O)cc(OC(CC)C(=O)O)c2)ccc1-c1nc2[nH]nnc2c(=O)[nH]1` (stereo not shown) [Compound 257, 2-((3′-ethoxy-5-hydroxy-4′-(7-oxo-6,7-dihydro-3H-[1,2,3]triazolo[4,5-d]pyrimidin-5-yl)-[1,1′-biphenyl]-3-yl)oxy)butanoic acid], the figure is ≤ 10 µM; as for `O=C(O)COc1cccc(-c2ccc(-c3nc4[nH]nnc4c(=O)[nH]3)c(OC3CCCC3)c2)c1` [Compound 216, 2-((3′-(Cyclopentyloxy)-4′-(7-oxo-6,7-dihydro-3H-[1,2,3]triazolo[4,5-d]pyrimidin-5-yl)-[1,1′-biphenyl]-3-yl)oxy)acetic acid], ≤ 10 µM. Consider `O=C(O)c1ccc(-c2ccc(-c3nc4[nH]nnc4c(=O)[nH]3)c(OC3CCCC3)c2)c(O)c1` [Compound 202, 3′-(Cyclopentyloxy)-2-hydroxy-4′-(7-oxo-6,7-dihydro-3H-[1,2,3]triazolo[4,5-d]pyrimidin-5-yl)-[1,1′-biphenyl]-4-carboxylic acid], for which the EC50 was ≤ 10 µM.

The test is the same for the next values; noted with them: at 50 μM; Table 2.
For `CCOC(=O)C1(Cc2cccc(-c3ccc(-c4nc5[nH]nnc5c(=O)[nH]4)c(OCC)c3)c2)CCC1` [Compound 245, ethyl 1-((3′-ethoxy-4′-(7-oxo-6,7-dihydro-3H-[1,2,3]triazolo[4,5-d]pyrimidin-5-yl)-[1,1′-biphenyl]-3-yl)methyl)cyclobutane-1-carboxylate], the “% inhibition at 50 μM” value was 12% inhibition at.

The record behind these values is patent US11053251B2, “GPR35 modulators” (Prometheus Biosciences, Inc., priority 2019, dated 2021).
